Assay results as given in ChEMBL document CHEMBL1201862, “PubChem BioAssay data set” (2004).
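96-well plates; 48 h exposure; 5 concentrations. Endpoints by linear interpolation between flanking doses. Not reached: highest tested concentration assigned. GI50 marks 50% less growth.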 Activity calls are given as the source filed them. Cut-off read from the data, not from the text of the source: active = GI50 up to about 1.1 µM and inactive = higher.

Columns and labels:
Assay in all cases: NCI anticancer screen, dose series, 48 h
[1] = test system: RPMI-8226
[2] = test system: M14
[3] = test system: ACHN
[4] = test system: U-251
[5] = test system: CCRF-CEM
[6] = test system: OVCAR-8
[7] = test system: SF-295
[8] = test system: SF-268
[9] = test system: SK-OV-3
[10] = test system: HCT-15
[11] = test system: IGROV-1
[12] = test system: OVCAR-5
[13] = test system: MDA-MB-435
[14] = test system: Hs-578T
[15] = test system: CAKI-1
[16] = test system: Malme-3M
[17] = test system: SK-MEL-28
[18] = test system: TK-10
[19] = test system: RXF 393
[20] = test system: HOP-62

Structure (SMILES)	GI50 [1]	GI50 [2]	GI50 [3]	GI50 [4]	GI50 [5]	GI50 [6]	GI50 [7]	GI50 [8]	GI50 [9]	GI50 [10] [µM]	GI50 [11]	GI50 [12]	GI50 [13]	GI50 [14]	GI50 [15]	GI50 [16]	GI50 [17]	GI50 [18]	GI50 [19]	GI50 [20]
COC(=O)c1ccc(NCc2c(O)ccc(O)c2Br)cc1Cl	3.56 µM (inactive)	17.5 µM (inactive)	15.6 µM (inactive)	16.7 µM (inactive)	0.367 µM (active)	14.7 µM (inactive)	18.9 µM (inactive)	17.4 µM (inactive)	> 100 µM (inactive)	16.6	14.5 µM (inactive)	14.6 µM (inactive)	13.6 µM (inactive)	25.1 µM (inactive)	15.8 µM (inactive)	18.3 µM (inactive)	16.8 µM (inactive)	–	–	–
CC[C@H](C)C1=C(OC(C)=O)[N@+]2([O-])Oc3ccc(-c4c(OC(C)=O)c(OC(C)=O)c(-c5ccc(OC(C)=O)cc5)c(OC(C)=O)c4OC(C)=O)cc3O[C@]2([C@@H](C)CC)C(=O)N1OC(C)=O	9.2 µM (inactive)	16.9 µM (inactive)	15.5 µM (inactive)	16 µM (inactive)	0.294 µM (active)	11.5 µM (inactive)	9.25 µM (inactive)	14.7 µM (inactive)	12.7 µM (inactive)	15.5	9.29 µM (inactive)	29.2 µM (inactive)	16 µM (inactive)	–	20 µM (inactive)	15.2 µM (inactive)	12.2 µM (inactive)	15.6 µM (inactive)	38.3 µM (inactive)	–
CCCCN(CCCC)CC(O)c1cc(-c2ccc(Cl)c(Cl)c2)nc2c(Cl)cc(Cl)cc12 (configuration not stated)	37.1 µM (inactive)	–	89.1 µM (inactive)	> 100 µM (inactive)	65.3 µM (inactive)	> 100 µM (inactive)	> 100 µM (inactive)	39.7 µM (inactive)	> 100 µM (inactive)	45.1	> 100 µM (inactive)	> 100 µM (inactive)	> 100 µM (inactive)	–	–	> 100 µM (inactive)	> 100 µM (inactive)	> 100 µM (inactive)	–	66.5 µM (inactive)
COC(=O)C1=C(c2cc(OC)c(OC)c(OC)c2)OC(c2ccc3c(c2)OCO3)C1 (configuration not stated)	33.4 µM (inactive)	29.4 µM (inactive)	26.3 µM (inactive)	19.6 µM (inactive)	27.6 µM (inactive)	37.9 µM (inactive)	18.5 µM (inactive)	56.5 µM (inactive)	45.5 µM (inactive)	19.1	2.12 µM (inactive)	64.4 µM (inactive)	–	–	22.6 µM (inactive)	72.1 µM (inactive)	48 µM (inactive)	80 µM (inactive)	49 µM (inactive)	35.7 µM (inactive)
NC(c1ccccc1)(C(F)(F)F)P1(=O)OC(=O)c2ccccc2O1 (configuration not stated)	> 100 µM (inactive)	> 100 µM (inactive)	> 100 µM (inactive)	> 100 µM (inactive)	–	> 100 µM (inactive)	> 100 µM (inactive)	> 100 µM (inactive)	26.9 µM (inactive)	> 100	> 100 µM (inactive)	> 100 µM (inactive)	> 100 µM (inactive)	–	> 100 µM (inactive)	–	> 100 µM (inactive)	> 100 µM (inactive)	> 100 µM (inactive)	> 100 µM (inactive)
CCCC(=O)OCC(O)CO (configuration not stated)	2990 µM (inactive)	> 5000 µM (inactive)	4830 µM (inactive)	> 5000 µM (inactive)	4500 µM (inactive)	2900 µM (inactive)	> 5000 µM (inactive)	> 5000 µM (inactive)	4970 µM (inactive)	> 5000	> 5000 µM (inactive)	2810 µM (inactive)	–	–	2040 µM (inactive)	3610 µM (inactive)	> 5000 µM (inactive)	1570 µM (inactive)	3090 µM (inactive)	> 5000 µM (inactive)
C=C(C)[C@@H]1CCC2=C[C@H](OC2=O)[C@@]2(C)C[C@@H]2C2=CC(C)=C(O2)[C@H]1O	–	68.4 µM (inactive)	36.9 µM (inactive)	> 75 µM (inactive)	37.4 µM (inactive)	25.1 µM (inactive)	33.3 µM (inactive)	30.7 µM (inactive)	54.5 µM (inactive)	36.4	21.3 µM (inactive)	> 75 µM (inactive)	30.6 µM (inactive)	–	21.5 µM (inactive)	48.9 µM (inactive)	46 µM (inactive)	38.7 µM (inactive)	38.5 µM (inactive)	> 75 µM (inactive)
C=C(Nc1nc2ccc(C)cc2s1)C(=O)C(CC)C(=O)C(CC)CC1C(=O)NC(=O)NC1=O (configuration not stated)	–	> 100 µM (inactive)	> 100 µM (inactive)	> 100 µM (inactive)	> 100 µM (inactive)	> 100 µM (inactive)	> 100 µM (inactive)	> 100 µM (inactive)	> 100 µM (inactive)	> 100	> 100 µM (inactive)	> 100 µM (inactive)	> 100 µM (inactive)	> 100 µM (inactive)	> 100 µM (inactive)	–	> 100 µM (inactive)	> 100 µM (inactive)	> 100 µM (inactive)	32 µM (inactive)
CC(C(=O)N1C(=O)N(C(=O)[C@H](C)C(O)c2ccccc2)[C@H](c2ccccc2)[C@H]1c1ccccc1)[C@@H](O)c1ccccc1 (some centres not stated)	–	28.5 µM (inactive)	30.5 µM (inactive)	35.9 µM (inactive)	–	25.1 µM (inactive)	29.2 µM (inactive)	38.2 µM (inactive)	83.6 µM (inactive)	45.7	12 µM (inactive)	25.2 µM (inactive)	26.2 µM (inactive)	–	20 µM (inactive)	–	> 100 µM (inactive)	41.2 µM (inactive)	–	37.1 µM (inactive)
CCc1cccc(C)c1N1C(=O)C(=O)C(c2nc3ccccc3o2)/C(=N/NC(=S)NN)C1=O (configuration not stated)	> 100 µM (inactive)	> 100 µM (inactive)	> 100 µM (inactive)	> 100 µM (inactive)	> 100 µM (inactive)	> 100 µM (inactive)	> 100 µM (inactive)	> 100 µM (inactive)	> 100 µM (inactive)	> 100	> 100 µM (inactive)	> 100 µM (inactive)	–	–	> 100 µM (inactive)	> 100 µM (inactive)	> 100 µM (inactive)	> 100 µM (inactive)	> 100 µM (inactive)	> 100 µM (inactive)
CC(=O)Nc1ccc(-c2nnc(SCC(=O)Nc3ccc([N+](=O)[O-])cc3)o2)cc1	24.7 µM (inactive)	13.9 µM (inactive)	15.4 µM (inactive)	14.7 µM (inactive)	12.6 µM (inactive)	14.6 µM (inactive)	14.1 µM (inactive)	14.1 µM (inactive)	17.8 µM (inactive)	12.9	11 µM (inactive)	19.8 µM (inactive)	–	–	14.3 µM (inactive)	14 µM (inactive)	14.3 µM (inactive)	14.6 µM (inactive)	14.7 µM (inactive)	26.3 µM (inactive)
O=c1[nH]c2nc3ccccc3c(=O)n2/c1=C/c1ccco1	> 100 µM (inactive)	> 100 µM (inactive)	> 100 µM (inactive)	> 100 µM (inactive)	> 100 µM (inactive)	> 100 µM (inactive)	> 100 µM (inactive)	> 100 µM (inactive)	> 100 µM (inactive)	> 100	> 100 µM (inactive)	> 100 µM (inactive)	> 100 µM (inactive)	> 100 µM (inactive)	> 100 µM (inactive)	> 100 µM (inactive)	> 100 µM (inactive)	> 100 µM (inactive)	–	> 100 µM (inactive)
CCOc1ccc(C2=NN(CC)C(=O)C(C3C(=O)N(c4ccccc4)N=C3C)C2)cc1 (configuration not stated)	> 100 µM (inactive)	> 100 µM (inactive)	> 100 µM (inactive)	> 100 µM (inactive)	> 100 µM (inactive)	> 100 µM (inactive)	> 100 µM (inactive)	> 100 µM (inactive)	> 100 µM (inactive)	> 100	> 100 µM (inactive)	> 100 µM (inactive)	–	–	> 100 µM (inactive)	> 100 µM (inactive)	> 100 µM (inactive)	> 100 µM (inactive)	> 100 µM (inactive)	> 100 µM (inactive)
CC1(C)Cc2ccccc2C(C)(Cl)C(=O)N1 (configuration not stated)	> 10 µM (inactive)	> 10 µM (inactive)	> 10 µM (inactive)	> 10 µM (inactive)	> 10 µM (inactive)	> 10 µM (inactive)	> 10 µM (inactive)	> 10 µM (inactive)	–	> 10	> 10 µM (inactive)	> 10 µM (inactive)	> 10 µM (inactive)	–	> 10 µM (inactive)	> 10 µM (inactive)	> 10 µM (inactive)	> 10 µM (inactive)	> 10 µM (inactive)	> 10 µM (inactive)
CCOC(=O)c1c(C)n(Cc2ccccc2)c2c1cc(O)c1[nH]c3c(c12)CCCC3	2.14 µM (inactive)	6.52 µM (inactive)	11.3 µM (inactive)	1.81 µM (inactive)	2.37 µM (inactive)	6.32 µM (inactive)	3.37 µM (inactive)	1.81 µM (inactive)	10.3 µM (inactive)	2.2	3.44 µM (inactive)	7.08 µM (inactive)	11.9 µM (inactive)	2.25 µM (inactive)	10.6 µM (inactive)	3.79 µM (inactive)	5.18 µM (inactive)	10.6 µM (inactive)	–	11.7 µM (inactive)
NNC(=O)COc1nc(-c2cccs2)nc2ccc(I)cc12	–	23.1 µM (inactive)	22.5 µM (inactive)	18.7 µM (inactive)	–	29 µM (inactive)	28.8 µM (inactive)	20.8 µM (inactive)	20.6 µM (inactive)	20.7	18.4 µM (inactive)	28.4 µM (inactive)	20.1 µM (inactive)	–	17.6 µM (inactive)	17 µM (inactive)	24.8 µM (inactive)	18.2 µM (inactive)	34.3 µM (inactive)	27.3 µM (inactive)
